Source: US6274715A, “Tricyclic erythromycin derivatives” (priority 1997, dated 2001)
≈ marks a conversion by molar mass, not a printed value.

What was measured:
Format in all cases: cell-based
[1] = system: KLEBSIELLA PNEUMONIAE ATCC 8045; assay: In vitro antibacterial activity, MIC, BHI agar dilution; conditions: K. pneumoniae ATCC 8045, unit assumed
[2] = system: STREPTOCOCCUS PYOGENES PIU 2548; assay: as above; conditions: S. pyogenes PIU 2548, unit assumed
[3] = system: STAPHYLOCOCCUS AUREUS CMX 642A; assay: as above; conditions: S. aureus CMX 642A, unit assumed
CANDIDA ALBICANS CCH 442 = assay: as above; conditions: C. albicans CCH 442, unit assumed
[4] = system: PSEUDOMONAS AERUGINOSA K799/WT; assay: as above; conditions: P. aeruginosa K799/WT, unit assumed
[5] = system: PROVIDENCIA STUARTII CMX 640; conditions: P. stuartii CMX 640; BHI agar; unit assumed
ESCHERICHIA COLI KNK 437 = conditions: E. coli KNK 437; BHI agar; unit assumed
[6] = system: PSEUDOMONAS AERUGINOSA DPHD-2862; assay: In vitro antibacterial activity, MIC, BHI agar dilution; conditions: P. aeruginosa DPHD-2862, unit assumed
ESCHERICHIA COLI JUHL = conditions: E. coli JUHL; BHI agar; unit assumed
[7] = system: STAPHYLOCOCCUS AUREUS NCTC10649M; assay: In vitro antibacterial activity, MIC, BHI agar dilution; conditions: S. aureus NCTC10649M, unit assumed
[8] = system: STAPHYLOCOCCUS AUREUS CMX 553; assay: as above; conditions: S. aureus CMX 553, unit assumed
ESCHERICHIA COLI DC-2 = assay: as above; conditions: E. coli DC-2, unit assumed
[9] = system: PSEUDOMONAS AERUGINOSA DPHD-5263; assay: as above; conditions: P. aeruginosa DPHD-5263, unit assumed
[10] = system: STREPTOCOCCUS PYOGENES EES61; assay: as above; conditions: S. pyogenes EES61, unit assumed
PSEUDOMONAS CEPACIA 296I = assay: as above; conditions: P. cepacia 296I, unit assumed
[11] = system: PSEUDOMONAS AERUGINOSA 5007; assay: as above; conditions: P. aeruginosa 5007, unit assumed
ESCHERICHIA COLI H560 = assay: as above; conditions: E. coli H560, unit assumed
[12] = system: STAPHYLOCOCCUS AUREUS ATCC 6538P; assay: as above; conditions: S. aureus ATCC 6538P, 35-37° C., 20 to 24 hours, unit assumed
ESCHERICHIA COLI SS = assay: as above; conditions: E. coli SS, unit assumed
[13] = system: STAPHYLOCOCCUS AUREUS A-5278; assay: as above; conditions: S. aureus A-5278, unit assumed
[14] = system: ENTEROBACTER AEROGENES ATCC 13048; assay: as above; conditions: E. aerogenes ATCC 13048, unit assumed
M[…] ATCC 4698 = assay: as above; conditions: M. luteus ATCC 4698, unit assumed
How it was run: (§1)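 MIC was read visually as the lowest drug concentration showing no growth, a slight haze or sparsely isolated colonies relative to a compound-free BHI plate. Plates held serial aqueous dilutions in BHI agar, were spot-inoculated with 1:100 (or 1:10) culture dilutions and incubated 20 to 24 hours at 35-37° C.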

EN[…] ATCC 8043 = assay: as above; conditions: E. faecium ATCC 8043, unit assumed
How it was run: as §1

M[…] ATCC 9341 = assay: as above; conditions: M. luteus ATCC 9341, unit assumed
How it was run: as §1

STR[…] 508 = assay: as above; conditions: S. agalactiae CMX 508, unit assumed
How it was run: as §1

[15] = system: STAPHYLOCOCCUS EPIDERMIDIS 3519; conditions: S. epidermidis 3519; BHI agar; unit assumed
[16] = system: STAPHYLOCOCCUS AUREUS A5177; assay: In vitro antibacterial activity, MIC, BHI agar dilution
[17] = system: STREPTOCOCCUS BOVIS A-5169; assay: as above; conditions: S. bovis A-5169, unit assumed
[18] = system: MYCOBACTERIUM SMEGMATIS ATCC 114; assay: as above; conditions: M. smegmatis ATCC 114, unit assumed
[19] = system: STAPHYLOCOCCUS AUREUS 1775; assay: as above; conditions: S. aureus 1775, unit assumed
[20] = system: STREPTOCOCCUS PYOGENES 930; assay: as above; conditions: S. pyogenes 930, unit assumed
[21] = system: PSEUDOMONAS AERUGINOSA BMH10; assay: as above; conditions: P. aeruginosa BMH10, unit assumed
[22] = system: PSEUDOMONAS AERUGINOSA K799/61; assay: as above; conditions: P. aeruginosa K799/61, unit assumed

Compound | MIC [1] | MIC [2] | MIC [3] | MIC (CANDIDA ALBICANS CCH 442) | MIC [4] | MIC [5] | MIC (ESCHERICHIA COLI KNK 437) | MIC [6] | MIC (ESCHERICHIA COLI JUHL) | MIC [7] | MIC [8] | MIC (ESCHERICHIA COLI DC-2) | MIC [9] | MIC [10] | MIC [11] | MIC (ESCHERICHIA COLI H560) | MIC [12] | MIC (ESCHERICHIA COLI SS) | MIC [13] | MIC [14] | other results
CC[C@H]1OC(=O)[C@H](C)C(=O)[C@H](C)[C@@H](O[C@@H]2O[C@H](C)C[C@H](N(C)C)[C@H]2O)[C@](C)(OC)C[C@@H](C)C2=NC[C@H](C)N3C(=O)O[C@@]1(C)[C@H]3[C@H]2C [Example 8] | 100 µg/mL (≈ 153 µM) | 0.78 µg/mL (≈ 1.2 µM) | 0.78 µg/mL (≈ 1.2 µM) | > 100 µg/mL | 100 µg/mL (≈ 153 µM) | > 100 µg/mL | 100 µg/mL (≈ 153 µM) | > 100 µg/mL | 100 µg/mL (≈ 153 µM) | 0.78 µg/mL (≈ 1.2 µM) | 0.78 µg/mL (≈ 1.2 µM) | 50 µg/mL (≈ 76.7 µM) | > 100 µg/mL | 0.1 µg/mL (≈ 0.153 µM) | > 100 µg/mL | 25 µg/mL (≈ 38.4 µM) | 0.78 µg/mL (≈ 1.2 µM) | 0.78 µg/mL (≈ 1.2 µM) | > 100 µg/mL | 100 µg/mL (≈ 153 µM) | MIC (PSEUDOMONAS CEPACIA 296I): > 100 µg/mL; MIC (M[…] ATCC 4698): 1.56 µg/mL (≈ 2.39 µM); MIC (EN[…] ATCC 8043): 0.78 µg/mL (≈ 1.2 µM); MIC (M[…] ATCC 9341): 1.56 µg/mL (≈ 2.39 µM); MIC (STR[…] 508): 0.1 µg/mL (≈ 0.153 µM); MIC [15]: 0.78 µg/mL (≈ 1.2 µM); MIC ([16]; S. aureus A5177, unit assumed): 0.78 µg/mL (≈ 1.2 µM); MIC [17]: 0.1 µg/mL (≈ 0.153 µM); MIC [18]: 6.2 µg/mL (≈ 9.51 µM); MIC [19]: > 100 µg/mL; MIC [20]: > 100 µg/mL; MIC [21]: 100 µg/mL (≈ 153 µM)
CC[C@H]1OC(=O)[C@H](C)[C@@H](O[C@H]2C[C@@](C)(OC)[C@@H](O)[C@H](C)O2)[C@H](C)[C@@H](O[C@@H]2O[C@H](C)C[C@H](N(C)C)[C@H]2O)[C@@H](C)C[C@@H](C)C2=NCCN3C(=O)O[C@@]1(C)[C@H]3[C@H]2C [Example 14] | 25 µg/mL (≈ 32.6 µM) | 1.56 µg/mL (≈ 2.03 µM) | 0.2 µg/mL (≈ 0.26 µM) | > 100 µg/mL | 100 µg/mL (≈ 130 µM) | > 100 µg/mL | 100 µg/mL (≈ 130 µM) | > 100 µg/mL | 50 µg/mL (≈ 65.1 µM) | 0.2 µg/mL (≈ 0.26 µM) | 0.1 µg/mL (≈ 0.13 µM) | 50 µg/mL (≈ 65.1 µM) | > 100 µg/mL | ≤ 0.005 µg/mL | > 100 µg/mL | 50 µg/mL (≈ 65.1 µM) | 0.1 µg/mL (≈ 0.13 µM) | 0.39 µg/mL (≈ 0.508 µM) | > 100 µg/mL | 100 µg/mL (≈ 130 µM) | MIC [22]: 3.1 µg/mL (≈ 4.04 µM); MIC (M[…] ATCC 4698): 0.78 µg/mL (≈ 1.02 µM); MIC (EN[…] ATCC 8043): 0.05 µg/mL (≈ 0.0651 µM); MIC (M[…] ATCC 9341): 0.78 µg/mL (≈ 1.02 µM); MIC (STR[…] 508): 0.01 µg/mL (≈ 0.013 µM); MIC [15]: 0.2 µg/mL (≈ 0.26 µM); MIC ([16]; S. aureus A5177): 6.2 µg/mL (≈ 8.07 µM); MIC [18]: 3.1 µg/mL (≈ 4.04 µM); MIC [19]: > 100 µg/mL; MIC [21]: 100 µg/mL (≈ 130 µM)
CC[C@H]1OC(=O)[C@H](C)C(=O)[C@H](C)[C@@H](O[C@@H]2O[C@H](C)C[C@H](N(C)C)[C@H]2O)[C@](C)(OC)C[C@@H](C)C2=N[C@@H]3CN(Cc4ccccc4)C[C@@H]3N3C(=O)O[C@@]1(C)[C@H]3[C@H]2C [Example 21] | > 100 µg/mL | 0.39 µg/mL (≈ 0.507 µM) | 6.2 µg/mL (≈ 8.06 µM) | > 100 µg/mL | > 100 µg/mL | > 100 µg/mL | > 100 µg/mL | > 100 µg/mL | > 100 µg/mL | 0.78 µg/mL (≈ 1.01 µM) | 0.78 µg/mL (≈ 1.01 µM) | 100 µg/mL (≈ 130 µM) | > 100 µg/mL | 0.01 µg/mL (≈ 0.013 µM) | > 100 µg/mL | 50 µg/mL (≈ 65 µM) | 0.78 µg/mL (≈ 1.01 µM) | 1.56 µg/mL (≈ 2.03 µM) | > 100 µg/mL | > 100 µg/mL | MIC [22]: 3.1 µg/mL (≈ 4.03 µM); MIC (PSEUDOMONAS CEPACIA 296I): > 100 µg/mL; MIC (M[…] ATCC 4698): 3.1 µg/mL (≈ 4.03 µM); MIC (EN[…] ATCC 8043): 0.2 µg/mL (≈ 0.26 µM); MIC (M[…] ATCC 9341): 0.78 µg/mL (≈ 1.01 µM); MIC (STR[…] 508): 0.05 µg/mL (≈ 0.065 µM); MIC [15]: 0.78 µg/mL (≈ 1.01 µM); MIC ([16]; S. aureus A5177, unit assumed): 0.78 µg/mL (≈ 1.01 µM); MIC [17]: 0.05 µg/mL (≈ 0.065 µM); MIC [19]: > 100 µg/mL; MIC [20]: 100 µg/mL (≈ 130 µM); MIC [21]: 100 µg/mL (≈ 130 µM)
